Data from patent US9241951B2, “Of gastrointestinal health, immunity and performance by dietary intervention” (BIOATLANTIS LTD, priority 2009, dated 2016).

How the values were obtained:
[1] = Piglet performance with lactose and SWE, Example 3; assay type: in vivo, pig
[2] = Coefficient of total tract apparent digestibility, Example 3; assay type: in vivo, pig; details: SWE − or +
[3] = test system: Escherichia coli; assay: Faecal microbiology, Example 3; assay type: in vivo, pig; details: SWE − or +
Protocol: (§1) This experiment was carried out over two consecutive periods of 25 days. 240 piglets were selected after weaning at 24 days and assigned to one of four dietary treatments. Pigs in period 1 and 2 had initial live weights of 7.2 Kg and 7.8 Kg (±0.9 Kg), respectively. This experiment was designed as a 2×2 factorial. During the experiment (days 0-25) piglets were offered the following diets: (T1) 150 g/Kg lactose; (T2) 150 g/Kg lactose+SWE; (T3) 250 g/Kg lactose (T4) 250 g/Kg lactose+SWE. SWE was included at 2.8 g/Kg and derived from Laminaria digitata. It contained laminarin (112 g/Kg), fucoidan (89 g/Kg) and ash (799 g/Kg).
(§2) Pigs were housed in groups of 4 (n=15/treatment) and weighed at weaning (day 0), day 7, 14 and 25. Pigs were fed ad libitum. Fresh faecal samples were collected on days 10 to 15 for determination of nutrient digestibility and VFA analysis. Fresh faecal samples were collected on day 10 for enumeration of E. coli and Lactobacilli (O'Connell et al., 2005).
(§3) 1 g of faecal sample was serially diluted in maximum recovery diluent (MRD; Oxoid, Basingstoke, UK) and plated on selective agars. Lactobacillus spp. were isolated on de Man Rogosa Sharp agar (MRS, Oxoid). The API 50 CHL (BioMerieux, France) kit was used to confirm suspect Lactobacilli spp. E. coli species were isolated on MacConkey agar (Oxoid). Suspect colonies were confirmed with API 20E (BioMerieux, France).

[4] = test system: Lactobacilli; assay: Faecal microbiology, Example 3; assay type: in vivo, pig; details: SWE − or +
Protocol: as §1, §2, §3

[5] = Pig performance post weaning with LAM and FUC, Example 4; assay type: in vivo; details: for ADG: days 14-21
Excerpt: (§4) One hundred and ninety two piglets were weaned at twenty four days of age, with an initial live weight of 6.4±0.785 Kg and assigned to one of four dietary treatments or 21 days post weaning. The dietary treatments consisted of (T1) basal diet, (T2) basal diet with 300 ppm LAM, (T3) basal diet with 236 ppm FUC, (T4) Basal diet with 300 ppm LAM and 236 ppm FUC. Diets were formulated to have identical concentrations of digestible energy (DE) (16 MJ/Kg) and ileal digestible lysine (14 g/Kg). All amino acid requirements were met relative to lysine (Close, 1994). Chromium III oxide was added to the diets for determination of nutrient digestibility. The LAM and FUC were derived from Laminaria hyperborea.
(§5) Piglets were housed in groups of 4 and offered feed twice daily. Water was supplied ad-libitum. Any pig displaying symptoms of illness was treated appropriately and recorded. Pigs were weighed on day 0 (day of weaning), 7, 14 and 21. Feed intake was monitored weekly. Fresh faecal samples were taken on day 10 and were analysed for E. coli and Lactobacilli concentrations. Faeces samples were collected from each pen on day 12-17 and were retained for chemical analysis. Fresh faecal samples were removed on day 14 and were frozen and retained for volatile fatty acid analysis. Fresh faecal samples were taken on day 17 for pH determination.

[6] = test system: Lactobacilli; assay: Faecal microbiology, Example 4; assay type: in vivo, pig
Excerpt: as §4, §5
A sample was serially diluted (1:10) in 9.0 ml aliquots of maximum recovery diluent (MRD, Oxoid, Basingstoke, UK), and spread plated (0.1 ml aliquots) onto selective agars. Lactobacillus spp. were isolated on de Man, Rogosa, Sharp agar (MRS, Oxoid) with overnight incubation at 37° C. in 5% CO2. The API 50 CHL (BioMerieux, France) kit was used to confirm suspect Lactobacilli spp. E. coli species were isolated on MacConkey agar (Oxoid), following aerobic incubation at 37° C. for 18-24 hours. Suspect colonies were confirmed with API 20E (BioMerieux, France).

[7] = Day 0-7, diet with 150 g/Kg lactose, SWE 2.8 g/Kg where included
[8] = Day 0-7, diet with 250 g/Kg lactose, SWE 2.8 g/Kg where included
[9] = Day 0-25, diet with 150 g/Kg lactose, SWE 2.8 g/Kg where included
[10] = Day 0-25, diet with 250 g/Kg lactose, SWE 2.8 g/Kg where included
[11] = Day 7-14, diet with 150 g/Kg lactose, SWE 2.8 g/Kg where included
[12] = Day 7-14, diet with 250 g/Kg lactose, SWE 2.8 g/Kg where included
[13] = Day 14-25, diet with 150 g/Kg lactose, SWE 2.8 g/Kg where included
[14] = Day 14-25, diet with 250 g/Kg lactose, SWE 2.8 g/Kg where included

In the case of `OC[C@H]1O[C@@H](O[C@H]2[C@H](O)[C@@H](O)C(O)O[C@@H]2CO)[C@H](O)[C@@H](O)[C@H]1O` (stereo partly drawn) [Lactose, lactose], the “Average Daily Gain (ADG)” value ([1]; Day 0-7, diet with 150 g/Kg lactose, SWE 2.8 g/Kg (L. digitata) where included) is reported as 0.100 kg/day, the “Average Daily Feed Intake (ADFI)” value [1, 7] is reported as 0.242 kg/day and the “Gain: Feed ratio” value [1, 7] is reported as 0.413 Kg/Kg. For the same molecule, the “Average Daily Gain (ADG)” value ([1]; Day 0-7, diet with 250 g/Kg lactose, SWE 2.8 g/Kg (L. digitata) where included) was 0.146 kg/day, the “Average Daily Feed Intake (ADFI)” value [1, 8] was 0.239 kg/day and the “Gain: Feed ratio” value [1, 8] was 0.589 Kg/Kg. For the same molecule, the “Average Daily Feed Intake (ADFI)” value [1, 9] was 0.446 kg/day, the “Average Daily Gain (ADG)” value [1, 9] was 0.275 kg/day and the “Gain: Feed ratio” value [1, 9] was 0.603 Kg/Kg. For the same molecule, the “Average Daily Feed Intake (ADFI)” value [1, 10] was 0.458 kg/day, the “Average Daily Gain (ADG)” value [1, 10] was 0.287 kg/day and the “Gain: Feed ratio” value [1, 10] was 0.619 Kg/Kg. For the same molecule, the “Average Daily Feed Intake (ADFI)” value [1, 11] was 0.415 kg/day, the “Average Daily Gain (ADG)” value [1, 11] was 0.302 kg/day and the “Gain: Feed ratio” value [1, 11] was 0.747 Kg/Kg. The “Average Daily Feed Intake (ADFI)” value [1, 12] was 0.450 kg/day, the “Average Daily Gain (ADG)” value [1, 12] was 0.325 kg/day and the “Gain: Feed ratio” value [1, 12] was 0.729 Kg/Kg. The “Average Daily Feed Intake (ADFI)” value [1, 13] was 0.682 kg/day, the “Average Daily Gain (ADG)” value [1, 13] was 0.438 kg/day and the “Gain: Feed ratio” value [1, 13] was 0.633 Kg/Kg. The “Average Daily Feed Intake (ADFI)” value [1, 14] was 0.683 kg/day, the “Average Daily Gain (ADG)” value [1, 14] was 0.388 kg/day and the “Gain: Feed ratio” value [1, 14] was 0.569 Kg/Kg. The “Digestibility Ash” value ([2]; diet Lactose 150 g/Kg) was 53.30%, the “Digestibility DM” value ([2]; diet Lactose 150 g/Kg) was 87.75% and the “Digestibility GE” value ([2]; diet Lactose 150 g/Kg) was 85.93%. The “Digestibility N” value ([2]; diet Lactose 150 g/Kg) was 83.69%, the “Digestibility NDF” value ([2]; diet Lactose 150 g/Kg) was 37.55% and the “Digestibility OM” value ([2]; diet Lactose 150 g/Kg) was 89.16%. For the same molecule, the “Digestibility Ash” value ([2]; diet Lactose 250 g/Kg) was 72.80%, the “Digestibility DM” value ([2]; diet Lactose 250 g/Kg) was 91.34% and the “Digestibility GE” value ([2]; diet Lactose 250 g/Kg) was 90.22%. The “Digestibility N” value ([2]; diet Lactose 250 g/Kg) was 86.86%, the “Digestibility NDF” value ([2]; diet Lactose 250 g/Kg) was 61.91% and the “Digestibility OM” value ([2]; diet Lactose 250 g/Kg) was 92.24%. For the same molecule, the “Bacterial populations Escherichia coli” value ([3]; diet Lactose 150 g/Kg) was 6.30 Log10 CFU/g faeces, the “Bacterial populations Escherichia coli” value ([3]; diet Lactose 250 g/Kg) was 5.70 Log10 CFU/g faeces and the “Bacterial populations Lactobacilli” value ([4]; diet Lactose 150 g/Kg) was 8.46 Log10 CFU/g faeces. For the same molecule, the “Bacterial populations Lactobacilli” value ([4]; diet Lactose 250 g/Kg) was 8.19 Log10 CFU/g faeces.
In the case of fucoidan, the ADG ([5]; FUC added to a LAM diet) is reported as “no effect”, the ADG ([5]; FUC diet (236 ppm) compared to basal diet) is reported as “significantly higher” and the “average daily feed intake” value ([5]; weaned pigs, 21 days, LAM 300 ppm, FUC 236 ppm) is reported as “no effect”. For the same molecule, the “faecal Lactobacilli numbers” value ([6]; FUC diet (236 ppm) v basal diet (8.93)) was 9.22 and the faecal lactobacilli populations ([6]; FUC included with LAM) was “no effect”.
